Structures are written as SMILES.

Data set [1] has as its system Pseudomonas aeruginosa strain K (PAK) in BALF. Kind of data set: PAK clearance in AC regimen-induced immunocompromised mice. Type of data set: in vivo. The conditions noted are these: PLAG 250 mg/kg oral once daily 5 days, BALF 3 and 6 hours after infection. As for the experimental part:
To establish a chemotherapy-induced immunocompromised mice model, the mice were administered a single intravenous injection of 50 mg/kg cyclophosphamide and 2.5 mg/kg doxorubicin (AC regimen). After 5 days from the injection of AC regimen, blood samples were collected from an intra-orbital vein using EDTA capillary tubes, and the number of circulating neutrophils was measured by complete blood cell count (CBC) analysis using Mindray BC-5300 auto-hematology analyzer (Shenzhen Mindray Bio-medical Electronics, China). Pseudomonas aeruginosa strain K (PAK) was grown overnight in LB broth at 37° C. with agitation and then harvested by centrifugation at 13,000×g for 2 minutes. […] The diluted bacteria were administrated to the mice by intranasal injection. Bronchoalveolar lavage fluid (BALF) samples were collected from the PAK-infected mice at different time points after infection in normal mice model and in AC regimen-induced immunocompromised mice model. […] The number of viable bacteria in BALF was determined by counting the number of colonies formed in the plates. […] The BALF samples were harvested at 3 and 6 hours after the infection, and live PAK in BALF after AC regimen and AC regimen/PLAG treatment was determined by counting with colony-forming units (FIG. 6B).

In data set [2] the test system is p47phox in Raw264.7 cells. In words: LPS-induced p47phox recruitment. Type of data set: cell-based. The following applies: LPS/PLAG treatment. As to the method:
(§1) Raw264.7 cells were divided into two groups: 1) LPS treated group and 2) LPS/PLAG treated group. For the LPS treated group, cells were treated with 100 μg/ml of DMSO (as solvent control) for 1 hour and treated with LPS (100 ng/ml) for 15, 30, 60, and 120 minutes. For LPS/PLAG treated group, cells were treated with PLAG (100 μg/ml) for 1 hour and treated with LPS (100 ng/ml) for 15, 30, 60, and 120 minutes. Cells were then fixed and stained using rat anti-TLR4/MD2 antibody with Alexa488-conjugated anti-rat IgG secondary antibody. These were analyzed by confocal microscopy. Raw264.7 cells stimulated under the same conditions were fixed, permeabilized, and stained with CM-H2DCFDA, the LYSO-ID® Lysosomal Detection Kit and rabbit anti-p47phox. Confocal microscopy was performed; all data shown represent one experiment performed in triplicate.

Data set [3] deals with total body irradiation by γ-ray. Kind of data set: Survival rate and body weight of γ-ray radiated mice. The format is in vivo. As to the method:
11 weeks Balb/c mice (10 males and 10 females) were divided into two groups: 1) radiated group (6.5Gy of TBI by γ-ray) and 2) PLAG (250 mg/kg of PLAG) administrated group with radiation (6.5Gy of TBI by γ-ray) (FIG. 39A). 6.5Gy of TBI was radiated on Day 0 and 250 mpk of PLAG was orally administrated from day 0 to day 30 daily. The survival rate of the mice was recorded daily until day 30.
11 weeks Balb/c mice (10 males and 10 females) were divided into four groups: 1) radiated group (6.11Gy of TBI by γ-ray), 2) PLAG (10 mg/kg of PLAG) administrated group with radiation (6.11Gy of TBI by γ-ray), 3) PLAG (50 mg/kg of PLAG) administrated group with radiation (6.11Gy of TBI by γ-ray), and 4) PLAG (250 mg/kg of PLAG) administrated group with radiation (6.11Gy of TBI by γ-ray) (FIG. 40A). 6.11Gy of TBI was radiated on Day 0 and […] of PLAG was orally administrated from day 1 to day 30 daily. The survival rate of the mice, was recorded daily until day 30.
11 weeks Balb/c mice (10 males and 10 females) were divided into four groups: 1) radiated group (6.11Gy of TBI by γ-ray), 2) PLAG (10 mg/kg of PLAG) administrated group with radiation (6.11Gy of TBI by γ-ray), 3) PLAG (50 mg/kg of PLAG) administrated group with radiation (6.11Gy of TBI by γ-ray), and 4) PLAG (250 mg/kg of PLAG) administrated group with radiation (6.11Gy of TBI by γ-ray). 6.11Gy of TBI was radiated on Day 0, and […] of PLAG was orally administrated from day 1 to day 30 daily. Body weight of the mice was recorded daily until day 30.

Data set [4] can be described thus: Cumulative excretion of radioactivity after single oral administration. Type of data set: in vivo, rats. As to the method: Excretion of PLAG at a single oral administration of 50 mg/kg BW to rats was examined in Mitsubishi Chemical Medicine Corporation (Japan) by radioactivity analysis. After oral administration of a single dose of 50 mg/kg, animals were individually accommodated in glass metabolic cages (Metabolica Model MC-CO2). Spontaneously excreted urine, feces, and radioactive molecules expired from each animal were collected. Sampling time points are 0-24, 24-48, 48-72 hours after administration. Then radioactivity and the excretion ratios and amount of radioactivity were determined. Radioactivity was measured by LSC (Tri-Carb 2300TR. Perkin Elmer, Inc) with the tSIE (transformed spectral index of external standard) method for the quenching correction.

In data set [5] the test system is intracellular lysosomes of Raw264.7 cells. Kind of data set: LPS-induced lysosomal activity (LYSO-ID). Type of data set: cell-based. The following applies: LPS/PLAG treatment. As for the experimental part: as §1

With `CCCCC/C=C\C/C=C\CCCCCCCC(=O)OC(COC(C)=O)COC(=O)CCCCCCCCCCCCCCC` (racemic) [PLAG, 1-palmitoyl-2-linoleoyl-3-acetylglycerol], in data set [1], the “bacterial clearance (live PAK CFU in BALF)” value is reported as “significantly accelerates”. For the same molecule, in data set [2], the p47phox recruitment initiated came to 15 min and the “return to homeostatic levels of p47phox” value stood at 60 min. Moreover, in data set [3] (6.11Gy TBI, 50mpk and 250 mpk), the “number of mice whose body weight loss is more than 10% and 20%” value is on record as “significantly less number”. In addition, in data set [3] (6.11Gy TBI, PLAG 10 mg/kg), the “body weight after radiation” value was “fluctuating and decreasing bodyweight”; the “survival rate after 30 days of radiation” value is listed as 5%. In data set [3] (6.11Gy TBI, PLAG 50 mg/kg), the body weight loss result is listed as “less than 10%” and the “survival rate after 30 days of radiation” value amounted to 40%. Also, in data set [3] (6.11Gy TBI, PLAG 250 mg/kg), the body weight loss result is given as “less than 10%” and the “survival rate after 30 days of radiation” value is 80%. For the same molecule, the “survival rate relative to the radiated group” value in data set [3] (6.5Gy TBI, PLAG 250 mg/kg) came out at 12 times. In data set [3] (6.5Gy TBI, PLAG 250 mg/kg daily day 0-30), the “survival rate 30 days after radiation” value came out at 60%. In data set [4] (50 mg/kg oral, by 24 hours), the “dosed radioactivity excreted into expired air” value amounted to 71.0%, the “dosed radioactivity excreted into feces” value is recorded as 3.0%, the “dosed radioactivity excreted into urine” value was 1.9% and the “total recovery of radioactivity” value amounted to 75.9%. In data set [4] (within 24 hours), the “PLAG administered degraded and metabolized” value is recorded as “approximately 76%”. Further, in data set [5], the lysosomal activity initiated amounted to 15 min and the “return to homeostatic levels of lysosomal activity” value came to 60 min.

The record behind these values is US20220339135A1, “COMPOSITIONS AND METHODS FOR MODULATING AN INFLAMMATORY RESPONSE” (Enzychem Lifesciences Corporation, priority 2019, published 2022).
